Values of other authors as cited in patent US6410548B1, “Spiropiperidine derivatives as melanocortin receptor agonists” (Merck & Co., Inc., priority 1998, dated 2002).

What was measured:
rodents = conditions: injected ICV; feeding models NPY, ob/ob, agouti, fasted
[1] = system: non-organic impotent patients; conditions: intramuscular, 0.025 mg/kg and 0.1 mg/kg, 10 non-organic impotent patients
normal male volunteers = conditions: intramuscular, 0.005-0.03 mg/kg, three normal male volunteers

Substance | effect on food intake (rodents) | onset of transient erections [1] | responders (transient erections) [1] | period of intermittent non-painful penile erections after dosing (normal male volunteers)
SHU-9119 | reverses this effect and can induce hyperphagia |  |  | 
melanotan-II [MT-II] | reduces food intake | 50 to 180 min | 8 | 1 to 5 h
